# Laboratory results as given in patent US8877744B2, “1,4-Oxazepines as BACE1 and/or BACE2 inhibitors” (Hoffmann-La Roche Inc., priority 2011, dated 2014).
# pIC50: −log10 of the molar value. Structures can show the parent of a compound that is named as a salt.
# Target: T1, BACE1 (Homo sapiens, UniProt P56817)
# T1 construct: endogenous in cells; host or cells: HEK293 stably transfected with human APP695 wt
# Experiment: Cellular Aβ-lowering assay b): HEK293 APP Abeta 40 AlphaLISA Assay
# Assay type: cell-based
# Settings: assay b): HEK293 APP cells, Aβ 40 in supernatant by AlphaLISA, 18-20 hrs incubation
# Method: b) HEK293 APP: Abeta 40 AlphaLISA Assay
# The cells were seeded in 96 well Microtiter plates in cell culture medium (Iscove's, plus 10% (v/v) fetal bovine serum, penicillin/streptomycin) to about 80% confluency and the compounds were added at a 3× concentration in ⅓ volume of culture medium (final DMSO concentration was kept at 1% v/v). After 18-20 hrs incubation at 37° C. and 5% CO2 in a humidified incubator, the culture supernatants were harvested for the determination of Aβ 40 concentrations using Perkin-Elmer Human Amyloid beta 1-40 (high specificity) Kit (Cat#AL275C).
# In a Perkin-Elmer White Optiplate-384 (Cat#6007290), […] culture supernatants were combined with 2 μl of a 10X AlphaLISA Anti-hAβ Acceptor beads+Biotinylated Antibody Anti-Aβ 1-40 Mix (50 μg/mL/5 nM). After 1 hour room temperature incubation, 16 μl of a 1.25× preparation of Streptavidin (SA) Donor beads (25 μg/mL) were added and incubated for 30 minutes in the Dark. Light Emission at 615 nm was then recorded using EnVision-Alpha Reader. Levels of Aβ 40 in the culture supernatants were calculated as percentage of maximum signal (cells treated with 1% DMSO without inhibitor). The IC50 values were calculated using the Excel XLfit software.
# T1 sequence (P56817 46-501): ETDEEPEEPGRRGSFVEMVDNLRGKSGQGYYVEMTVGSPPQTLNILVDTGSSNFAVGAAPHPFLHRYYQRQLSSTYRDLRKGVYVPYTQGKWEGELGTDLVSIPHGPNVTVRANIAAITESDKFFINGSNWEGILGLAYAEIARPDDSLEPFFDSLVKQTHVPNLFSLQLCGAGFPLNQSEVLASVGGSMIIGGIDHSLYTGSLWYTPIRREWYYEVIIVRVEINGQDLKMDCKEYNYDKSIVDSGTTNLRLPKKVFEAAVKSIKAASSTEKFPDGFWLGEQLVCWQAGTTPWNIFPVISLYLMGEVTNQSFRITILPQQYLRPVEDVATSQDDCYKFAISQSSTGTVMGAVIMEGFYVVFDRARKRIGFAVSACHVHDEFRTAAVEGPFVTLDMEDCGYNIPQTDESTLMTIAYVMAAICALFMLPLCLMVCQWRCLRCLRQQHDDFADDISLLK
row,Compound,pIC50
1,"CC1(C)OCC(N)=N[C@](C)(c2cc(C#Cc3ccc(Cl)nn3)ccc2F)C1(F)F [Example 37, (R)-5-[5-(6-Chloro-pyridazin-3-ylethynyl)-2-fluoro-phenyl]-6,6-difluoro-5,7,7-trimethyl-2,5,6,7-tetrahydro-[1,4]oxazepin-3-ylamine]",6.84
2,"CC1(C)OCC(N)=N[C@](C)(c2cc(C#Cc3ccccn3)ccc2F)C1(F)F [Example 39, (R)-6,6-Difluoro-5-(2-fluoro-5-pyridin-2-ylethynyl-phenyl)-5,7,7-trimethyl-2,5,6,7-tetrahydro-[1,4]oxazepin-3-ylamine]",6.44
3,"CC1(C)OCC(N)=N[C@](C)(c2cc(-c3cc(F)cc(Cl)c3)ccc2F)C1(F)F [Example 11, (R)-5-(5′-Chloro-4,3′-difluoro-biphenyl-3-yl)-6,6-difluoro-5,7,7-trimethyl-2,5,6,7-tetrahydro-[1,4]oxazepin-3-ylamine hydrochloride]",6.29
4,"CC(C)(C)NS(=O)(=O)c1cncc(-c2ccc(F)c([C@@]3(C)N=C(N)COC(C)(C)C3(F)F)c2)c1 [Example 16, 5-[3-((R)-3-Amino-6,6-difluoro-5,7,7-trimethyl-2,5,6,7-tetrahydro-[1,4]oxazepin-5-yl)-4-fluoro-phenyl]-pyridine-3-sulfonic acid tert-butylamide]",5.81
5,"CC(C)(C)NS(=O)(=O)c1cccc(-c2ccc(F)c([C@@]3(C)N=C(N)COC(C)(C)C3(F)F)c2)c1 [Example 15, 3′-((R)-3-Amino-6,6-difluoro-5,7,7-trimethyl-2,5,6,7-tetrahydro-[1,4]oxazepin-5-yl)-4′-fluoro-biphenyl-3-sulfonic acid tert-butylamide]",5.40
6,"CC1(C)OCC(N)=N[C@](C)(c2cc(-c3nc4ccc(Cl)cc4s3)ccc2F)C1(F)F [Example 21, (R)-5-[5-(6-Chloro-benzothiazol-2-yl)-2-fluoro-phenyl]-6,6-difluoro-5,7,7-trimethyl-2,5,6,7-tetrahydro-[1,4]oxazepin-3-ylamine hydrochloride]",5.13
7,"CC1(C)OCC(N)=N[C@](C)(c2cc(-c3cnn(-c4ccc(F)cc4)c3)c(F)cc2F)C1(F)F [Example 29, (R)-6,6-Difluoro-5-{2,4-difluoro-5-[1-(4-fluoro-phenyl)-1H-pyrazol-4-yl]-phenyl}-5,7,7-trimethyl-2,5,6,7-tetrahydro-[1,4]oxazepin-3-ylamine]",6.03
8,"CC1(C)OCC(N)=N[C@](C)(c2cc(C#Cc3cc(C#N)ccn3)ccc2F)C1(F)F [Example 36, 2-[3-((R)-3-Amino-6,6-difluoro-5,7,7-trimethyl-2,5,6,7-tetrahydro-[1,4]oxazepin-5-yl)-4-fluoro-phenylethynyl]-isonicotinonitrile]",6.94
9,"CC1(C)OCC(N)=N[C@](C)(c2cc(C#Cc3ccc(C#N)cn3)ccc2F)C1(F)F [Example 33, 6-[3-((R)-3-Amino-6,6-difluoro-5,7,7-trimethyl-2,5,6,7-tetrahydro-[1,4]oxazepin-5-yl)-4-fluoro-phenylethynyl]-nicotinonitrile]",8.52
10,"CC(C)(C)COS(=O)(=O)c1cccc(-c2ccc(F)c([C@@]3(C)N=C(N)COC(C)(C)C3(F)F)c2)c1 [Example 12, 3′-((R)-3-Amino-6,6-difluoro-5,7,7-trimethyl-2,5,6,7-tetrahydro-[1,4]oxazepin-5-yl)-4′-fluoro-biphenyl-3-sulfonic acid 2,2-dimethyl-propyl ester]",5.29
11,"CC1(C)OCC(N)=N[C@](C)(c2cc(-c3cn(-c4ccc(C(F)(F)F)cn4)cn3)ccc2F)C1(F)F [Example 23, (R)-6,6-Difluoro-5-{2-fluoro-5-[1-(5-trifluoromethyl-pyridin-2-yl)-1H-imidazol-4-yl]-phenyl}-5,7,7-trimethyl-2,5,6,7-tetrahydro-[1,4]oxazepin-3-ylamine]",6.66
12,"CC1(C)OCC(N)=N[C@](C)(c2cc(-c3nc4ccc(Cl)cc4o3)c(F)cc2F)C1(F)F [Example 31, (R)-5-[5-(6-Chloro-benzooxazol-2-yl)-2,4-difluoro-phenyl]-6,6-difluoro-5,7,7-trimethyl-2,5,6,7-tetrahydro-[1,4]oxazepin-3-ylamine]",6.74
